Data from patent publication US20250325565A1, “ERAVACYCLINE FOR TREATING CANCER” (B. G. NEGEV TECHNOLOGIES AND APPLICATIONS LTD., priority 2022, published 2025).

What was measured:
[1] = tested on: cleaved Poly (ADP-ribose) polymerase 1 (C-PARP1); assay: Western blot of C-PARP1 in BxPC-3 cells; type: cell-based, human; conditions: BxPC-3, 15 μM, 72 h
Procedure: Following the three-day incubation of BxPC-3 cells with medium alone as a control or medium containing different concentrations of eravacycline, gemcitabine, or doxorubicin, BxPC-3 cells were harvested and lysed. BxPC-3 cells were briefly lysed with a buffer containing 20 mM HEPES (pH 7.4), 150 mM NaCl, 1 mM EGTA, 1 mM EDTA, 10% glycerol, 1 mM MgCl2, 1% Triton X-100, and 10 μL of protease phosphatase inhibitors per 1 mL buffer. After incubation on ice for 45 min, the lysates were sonicated for 15 min (40% amplitude without pulses) and centrifuged at 12,000×g at 4° C., and the supernatants were collected. The supernatants were analyzed for protein concentration using the Bradford assay. Absorbance was recorded on a microplate reader at 595 nm (Bio-RadiMark Microplate Absorbance reader).
To evaluate the expression of cell apoptosis-related proteins, cleaved Poly (ADP-ribose) polymerase 1 (C-PARP1) was detected using western blot assays. Actin was used as a control. […] Membranes were incubated for 1 h at room temperature with anti-rabbit secondary antibodies (1:1,000, Sigma-Aldrich). β-actin levels were determined using anti-β-actin (1:10,000, Sigma-Aldrich). Immune complexes were detected with a chemiluminescence reagent (Thermo Fisher Scientific, Pierce ECL Plus Substrate), followed by exposure to Kodak X-ray film (Rochester, NY, USA). […]

[2] = tested on: Panc-1 scr, Panc-1 p53-R273H knock-out (KO) cell lines; assay: XTT cell proliferation assay, Panc-1 cell lines; type: cell-based, human; conditions: 72 h, 1-50 μM
Procedure: Human PDAC (AsPC-1, BxPC-3, Panc-1 scr, Panc-1 p53-R273H knock-out (KO) hTERT-HPNE), breast (MCF-7), lung (A549), and colon (HT-29) cancer cell lines were purchased from the American Type Culture Collection (ATCC). The MCF-7, A549, Panc-1 scr, Panc-1 p53 KO and HT-29 cell lines were grown in Dulbecco's Modified Eagle Medium (DMEM; Biological Industries, Beit HaEmek (BI), Israel), and the BxPC-3 and AsPC-1 cell lines were cultured in Roswell Park Memorial Institute-1640 (RPMI-1640; BI, Israel) medium. All media was supplemented with 10% fetal bovine serum (FBS), 200 μM L-glutamine (BI), and 1% penicillin-streptomycin (BI). Cells were cultured at 37° C. in a 5% CO2 humidified incubator.
The XTT Cell Proliferation Assay Kit was used to determine cell viability and proliferation. Cells were seeded in 96-well plates at a density of 4,000 cells per well and allowed to attach overnight in a 5% CO2 incubator at 37° C. After overnight incubation, cells were treated with culture medium or in a medium containing tigecycline, omadacycline, or eravacycline at different concentrations (1, 2, 5, 10, 25, and 50 μM) for the indicated time period. […] After shaking the plate gently to distribute the dye in the wells, the absorbance was measured with a spectrophotometer (Bio-RadiMark Microplate Absorbance reader) at a wavelength of 450 nm and a reference wavelength of 655 nm. […]

BxPC-3 xenograft tumors = assay: BxPC-3 cell xenograft tumor model; type: in vivo, athymic nude mice; conditions: nude mice
Procedure: Six-week-old female athymic nude mice were purchased from Envigo (Jerusalem, Israel) and housed in pathogen-free conditions and fed a standard sterilized diet. The mice were housed in humidity- and temperature-controlled conditions, and the light/dark cycle was set at 12 h intervals. The animal protocol was reviewed and approved by the Committee for the Ethical Care and Use of Animals in Research at Ben-Gurion University of the Negev, complying with the Israeli Animal Welfare Law. BxPC-3 cells (4×10^6) were injected subcutaneously into one flank of the mice. Tumor size was measured every other day based on caliper measurements of tumor length and width (volume=tumor length×width^2×0.5236). Ten days later, when tumors were palpable and reached volumes of 50-150 mm^3, the mice bearing tumors were randomly assigned to control or eravacycline groups (n=6). Treatment was administered every two days using either phosphate buffered saline (PBS), eravacycline (10 mg/kg by i.p. injection) or gemcitabine (25 mg/kg by i.p. injection) for 10 days. The tumor growth and mouse weight were measured every other day during the treatment period. After the last treatment, the mice were monitored for an additional six days, and then the experiment was terminated. The mice were then sacrificed, the tumors were excised, photographed, and measured, and the tumor tissues were snap-frozen, pending analysis.
To further assess the inhibition effect of eravacycline on human PDAC cells in vivo, BxPC-3 cells were injected subcutaneously into nude mice to establish xenograft models for in vivo experiments. The mice were randomly divided into three groups: the control group, the gemcitabine group (25 mg/kg), and the eravacycline group (10 mg/kg). Following the last administration of treatment, mice were monitored for an additional six days; then the experiment was terminated, the mice were sacrificed, and the tumors were excised, photographed, and weighed (FIGS. 6B-6D).

[3] = 10 mg/kg i.p. every two days for 10 days

Structure (SMILES): CN(C)[C@@H]1C(O)=C(C(N)=O)C(=O)[C@@]2(O)C(O)=C3C(=O)c4c(O)c(NC(=O)CN5CCCC5)cc(F)c4C[C@H]3C[C@@H]12 [eravacycline, (4S,4aS,5aR,12aS)-4-(Dimethylamino)-7-fluoro-3,10,12,12a-tetrahydroxy-1,11-dioxo-9-[2-(pyrrolidin-1-yl)acetamido]-1,4,4a,5,5a,6,11,12a-octahydrotetracene-2-carboxamide]
- C-PARP1 expression vs control [1]: increased significantly
- effect on cell viability (in words) [2]: No significant effect
- effect on cell viability (in words) ([2]; listed as Eravacycline): no toxicity was observed
- mouse weight loss vs control group (BxPC-3 xenograft tumors; [3]): no significant weight loss
- tumor growth blocked (BxPC-3 xenograft tumors; [3]): 76%
- tumor volume and tumor weight compared with gemcitabine (25 mg/kg) (BxPC-3 xenograft tumors; 10 mg/kg i.p.): superior to gemcitabine treatment
